In patent US9499547B2 (BAYER INTELLECTUAL PROPERTY GMBH, priority 2011, dated 2016):
Counter-ions that a name gives are not always drawn.

Legend:
human full-length MKNK1 [1] = biological target: T1, human full-length MKNK1 (Homo sapiens (Human), UniProt Q9BUB5, T344D); experiment: MKNK1 kinase assay (MKNK1 TR-FRET assay); type: biochemical; conditions: 10 μM ATP final conc.; 15 min preincubation with enzyme
Description: MKNK1-inhibitory activity of compounds of the present invention was quantified employing the MKNK1 TR-FRET assay as described in the following paragraphs.
As substrate for the kinase reaction the biotinylated peptide biotin-Ahx-[…] (C-terminus in amide form) was used which can be purchased e.g. form the company Biosyntan (Berlin-Buch, Germany).
(§1) For the assay 50 nL of a 100 fold concentrated solution of the test compound in DMSO was pipetted into a black low volume 384 well microtiter plate (Greiner Bio-One, Frickenhausen, Germany), 2 μL of a solution of MKNK1 in aqueous assay buffer [50 mM HEPES pH 7.5, 5 mM magnesium chloride, 1.0 mM dithiothreitol, 0.005% (v/v) Nonidet-P40 (Sigma)] was added and the mixture was incubated for 15 min at 22° C. to allow pre-binding of the test compounds to the enzyme before the start of the kinase reaction. Then the kinase reaction was started by the addition of 3 μL of a solution of adenosine-tri-phosphate (ATP, 16.7 μM=>final conc. in the 5 μL assay volume is 10 μM) and substrate (0.1 μM=>final conc. in the 5 μL assay volume is 0.06 μM) in assay buffer and the resulting mixture was incubated for a reaction time of 45 min at 22° C. The concentration of MKNK1 was adjusted depending of the activity of the enzyme lot and was chosen appropriate to have the assay in the linear range, typical concentrations were in the range of 0.05 μg/ml. The reaction was stopped by the addition of 5 μL of a solution of TR-FRET detection reagents (5 nM streptavidine-XL665 [Cisbio Bioassays, Codolet, France] and 1 nM anti-ribosomal protein S6 (pSer236)-antibody from Invitrogen [#44921G] and 1 nM LANCE EU-W1024 labeled ProteinG [Perkin-Elmer, product no. AD0071]) in an aqueous EDTA-solution (100 mM EDTA, 0.1% (w/v) bovine serum albumin in 50 mM HEPES pH 7.5).
(§2) The resulting mixture was incubated for 1 h at 22° C. to allow the formation of complex between the phosphorylated biotinylated peptide and the detection reagents. Subsequently the amount of phosphorylated substrate was evaluated by measurement of the resonance energy transfer from the Eu-chelate to the streptavidine-XL. Therefore, the fluorescence emissions at 620 nm and 665 nm after excitation at 350 nm were measured in a TR-FRET reader, e.g. a Rubystar (BMG Labtechnologies, Offenburg, Germany) or a Viewlux (Perkin-Elmer). The ratio of the emissions at 665 nm and at […] was taken as the measure for the amount of phosphorylated substrate. The data were normalised (enzyme reaction without inhibitor=0% inhibition, all other assay components but no enzyme=100% inhibition).

human full-length MKNK1 [2] = biological target: T1, human full-length MKNK1; experiment: MKNK1 kinase high ATP assay (TR-FRET-based); type: biochemical; conditions: 2 mM ATP final conc.; 15 min preincubation with enzyme
Description: MKNK1 Kinase High ATP Assay
MKNK1-inhibitory activity at high ATP of compounds of the present invention after their preincubation with MKNK1 was quantified employing the TR-FRET-based MKNK1 high ATP assay as described in the following paragraphs.
As substrate for the kinase reaction the biotinylated peptide biotin-Ahx-[…] (C-terminus in amide form) was used, which can be purchased e.g. from the company Biosyntan (Berlin-Buch, Germany).
as §1, with “3.3 mM=>final” for “16.7 μM=>final”, “2 mM)” for “10 μM)”, “30” for “45”, “0.003 μg/mL.” for “0.05 μg/ml.”
as §2

T1 sequence (Q9BUB5 other isoform, or with tags, fused parts or gaps T344D): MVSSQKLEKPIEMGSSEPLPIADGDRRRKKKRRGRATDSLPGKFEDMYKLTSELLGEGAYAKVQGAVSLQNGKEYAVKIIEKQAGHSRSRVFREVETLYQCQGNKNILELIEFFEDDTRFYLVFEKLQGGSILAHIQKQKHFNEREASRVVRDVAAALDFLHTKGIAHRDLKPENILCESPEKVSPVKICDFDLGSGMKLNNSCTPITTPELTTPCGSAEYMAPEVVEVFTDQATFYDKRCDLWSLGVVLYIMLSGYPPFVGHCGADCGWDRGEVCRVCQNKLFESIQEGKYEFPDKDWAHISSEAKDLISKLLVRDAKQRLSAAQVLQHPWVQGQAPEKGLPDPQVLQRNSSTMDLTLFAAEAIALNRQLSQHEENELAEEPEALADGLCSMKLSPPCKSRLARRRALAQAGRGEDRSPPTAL

## NCCOc1ccc2ncc(-c3cc4ccccc4o3)n2n1 [Example 12, 2-{[3-(1-Benzofuran-2-yl)imidazo[1,2-b]pyridazin-6-yl]oxy}ethanamine]
Human full-length MKNK1 [1]
  IC50: 10 nM
Human full-length MKNK1 [2]
  IC50: 27 nM

## CC(C)(N)CCOc1ccc2ncc(-c3cc4ccccc4o3)n2n1 [Example 14, 4-{[3-(1-Benzofuran-2-yl)imidazo[1,2-b]pyridazin-6-yl]oxy}-2-methylbutan-2-amine]
Human full-length MKNK1 [1]
  IC50: 20 nM
Human full-length MKNK1 [2]
  IC50: 39 nM

## C[C@H](CN)Oc1ccc2ncc(-c3cc4cc(Cl)ccc4o3)n2n1 [Example 15, (2R)-2-{[3-(5-Chloro-1-benzofuran-2-yl)imidazo[1,2-b]pyridazin-6-yl]oxy}-propan-1-amine]
Human full-length MKNK1 [1]
  IC50: 36 nM
Human full-length MKNK1 [2]
  IC50: 197 nM

## NC[C@H](Oc1ccc2ncc(-c3cc4ccccc4o3)n2n1)c1ccccc1 [Example 16, (2R)-2-{[3-(1-Benzofuran-2-yl)imidazo[1,2-b]pyridazin-6-yl]oxy}-2-phenylethanamine]
Human full-length MKNK1 [1]
  IC50: 26 nM
Human full-length MKNK1 [2]
  IC50: 49 nM

## N[C@H](COc1ccc2ncc(-c3cc4ccccc4o3)n2n1)c1ccccc1 [Example 17, (1S)-2-{[3-(1-Benzofuran-2-yl)imidazo[1,2-b]pyridazin-6-yl]oxy}-1-phenylethanamine]
Human full-length MKNK1 [1]
  IC50: 6 nM
Human full-length MKNK1 [2]
  IC50: 10 nM

## N[C@@H](COc1ccc2ncc(-c3cc4ccccc4o3)n2n1)c1ccccc1 [Example 18, (1R)-2-{[3-(1-Benzofuran-2-yl)imidazo[1,2-b]pyridazin-6-yl]oxy}-1-phenylethanamine]
Human full-length MKNK1 [1]
  IC50: 22 nM
Human full-length MKNK1 [2]
  IC50: 33 nM

## N[C@H](COc1ccc2ncc(-c3cc4cc(Cl)ccc4o3)n2n1)c1ccccc1 [Example 19, (1S)-2-{[3-(5-Chloro-1-benzofuran-2-yl)imidazo[1,2-b]pyridazin-6-yl]oxy}-1-phenylethanamine]
Human full-length MKNK1 [1]
  IC50: 25 nM
Human full-length MKNK1 [2]
  IC50: 111 nM

## NC[C@H]1C[C@H](Oc2ccc3ncc(-c4cc5ccccc5o4)n3n2)C1 [Example 20, 1-(trans-3-{[3-(1-Benzofuran-2-yl)imidazo[1,2-b]pyridazin-6-yl]oxy}cyclobutyl)-methanamine]
Human full-length MKNK1 [1]
  IC50: 4 nM
Human full-length MKNK1 [2]
  IC50: 6 nM

## N[C@H]1C[C@H](COc2ccc3ncc(-c4cc5ccccc5o4)n3n2)C1 [Example 22, trans-3-({[3-(1-Benzofuran-2-yl)imidazo[1,2-b]pyridazin-6-yl]oxy}methyl)cyclobutanamine]
Human full-length MKNK1 [1]
  IC50: 6 nM
Human full-length MKNK1 [2]
  IC50: 17 nM

## N[C@H]1CCC[C@@H]1Oc1ccc2ncc(-c3cc4ccccc4o3)n2n1 [Example 24, (1S,2S)-2-{[3-(1-Benzofuran-2-yl)imidazo[1,2-b]pyridazin-6-yl]oxy}cyclopentanamine]
Human full-length MKNK1 [1]
  IC50: 10 nM
Human full-length MKNK1 [2]
  IC50: 19 nM

## N[C@H]1CCC[C@H]1Oc1ccc2ncc(-c3cc4ccccc4o3)n2n1 [Example 25, (1S,2R)-2-{[3-(1-Benzofuran-2-yl)imidazo[1,2-b]pyridazin-6-yl]oxy}cyclopentanamine salt with formic acid]
Human full-length MKNK1 [1]
  IC50: 7 nM
Human full-length MKNK1 [2]
  IC50: 22 nM

## NCC(Cc1ccccc1)Oc1ccc2ncc(-c3cc4ccccc4o3)n2n1 (centres unmarked) [Example 26, 2-{[3-(1-Benzofuran-2-yl)imidazo[1,2-b]pyridazin-6-yl]oxy}-3-phenylpropan-1-amine salt with formic acid]
Human full-length MKNK1 [1]
  IC50: 15 nM
Human full-length MKNK1 [2]
  IC50: 25 nM

## CC(C)(N)COc1ccc2ncc(-c3cc4ccccc4o3)n2n1 [Example 29, 1-{[3-(1-Benzofuran-2-yl)imidazo[1,2-b]pyridazin-6-yl]oxy}-2-methylpropan-2-amine]
Human full-length MKNK1 [1]
  IC50: 17 nM
Human full-length MKNK1 [2]
  IC50: 59 nM

## NCC(Oc1ccc2ncc(-c3cc4ccccc4o3)n2n1)C1CC1 (centres unmarked) [Example 30, 2-{[3-(1-Benzofuran-2-yl)imidazo[1,2-b]pyridazin-6-yl]oxy}-2-cyclopropylethanamine]
Human full-length MKNK1 [1]
  IC50: 41 nM
Human full-length MKNK1 [2]
  IC50: 75 nM

## NCC(CN)Oc1ccc2ncc(-c3cc4ccccc4o3)n2n1 [Example 34, 2-{[3-(1-Benzofuran-2-yl)imidazo[1,2-b]pyridazin-6-yl]oxy}propane-1,3-diamine]
Human full-length MKNK1 [1]
  IC50: 39 nM
Human full-length MKNK1 [2]
  IC50: 92 nM

## NCC(Oc1ccc2ncc(-c3cc4ccccc4o3)n2n1)C1CCOC1 (centres unmarked) [Example 35, 2-{[3-(1-Benzofuran-2-yl)imidazo[1,2-b]pyridazin-6-yl]oxy}-2-(tetrahydrofuran-3-yl)ethanamine]
Human full-length MKNK1 [1]
  IC50: 32 nM
Human full-length MKNK1 [2]
  IC50: 52 nM

## N[C@H]1C[C@H](Oc2ccc3ncc(-c4cc5c(F)cccc5o4)n3n2)C1 [Example 36, trans-3-{[3-(4-Fluoro-1-benzofuran-2-yl)imidazo[1,2-b]pyridazin-6-yl]oxy}-cyclobutanamine]
Human full-length MKNK1 [1]
  IC50: 1 nM
Human full-length MKNK1 [2]
  IC50: 2 nM

## N[C@H]1C[C@H](Oc2ccc3ncc(-c4cc5cc(Cl)ccc5o4)n3n2)C1 [Example 37, trans-3-{[3-(5-Chloro-1-benzofuran-2-yl)imidazo[1,2-b]pyridazin-6-yl]oxy}-cyclobutanamine]
Human full-length MKNK1 [1]
  IC50: 4 nM
Human full-length MKNK1 [2]
  IC50: 5 nM

## COc1ccc2oc(-c3cnc4ccc(O[C@H]5C[C@H](N)C5)nn34)cc2c1 [Example 38, trans-3-{[3-(5-Methoxy-1-benzofuran-2-yl)imidazo[1,2-b]pyridazin-6-yl]oxy}-cyclobutanamine]
Human full-length MKNK1 [1]
  IC50: 3 nM
Human full-length MKNK1 [2]
  IC50: 6 nM

## N[C@H]1C[C@H](Oc2ccc3ncc(-c4cc5cc(F)ccc5o4)n3n2)C1 [Example 39, trans-3-{[3-(5-Fluoro-1-benzofuran-2-yl)imidazo[1,2-b]pyridazin-6-yl]oxy}-cyclobutanamine]
Human full-length MKNK1 [1]
  IC50: 3 nM
Human full-length MKNK1 [2]
  IC50: 6 nM

## CC(CN)COc1ccc2ncc(-c3cc4ccccc4o3)n2n1 (centres unmarked) [Example 40, 3-{[3-(1-Benzofuran-2-yl)imidazo[1,2-b]pyridazin-6-yl]oxy}-2-methylpropan-1-amine]
Human full-length MKNK1 [1]
  IC50: 9 nM
Human full-length MKNK1 [2]
  IC50: 18 nM

## COc1cccc2oc(-c3cnc4ccc(OCC(N)C5CC5)nn34)cc12 (centres unmarked) [Example 41, 1-Cyclopropyl-2-{[3-(4-methoxy-1-benzofuran-2-yl)imidazo[1,2-b]pyridazin-6-yl]oxy}ethanamine]
Human full-length MKNK1 [1]
  IC50: 12 nM
Human full-length MKNK1 [2]
  IC50: 27 nM

## C[C@@H](N)COc1ccc2ncc(-c3cc4ccccc4o3)n2n1 [Example 42, (2R)-1-{[3-(1-Benzofuran-2-yl)imidazo[1,2-b]pyridazin-6-yl]oxy}propan-2-amine]
Human full-length MKNK1 [1]
  IC50: 15 nM
Human full-length MKNK1 [2]
  IC50: 43 nM

## C[C@@H](N)COc1ccc2ncc(-c3cc4cc(Cl)ccc4o3)n2n1 [Example 43, (2R)-1-{[3-(5-Chloro-1-benzofuran-2-yl)imidazo[1,2-b]pyridazin-6-yl]oxy}-propan-2-amine]
Human full-length MKNK1 [1]
  IC50: 33 nM
Human full-length MKNK1 [2]
  IC50: 62 nM

## NCC1(COc2ccc3ncc(-c4cc5ccccc5o4)n3n2)COC1 [Example 44, 1-[3-({[3-(1-Benzofuran-2-yl)imidazo[1,2-b]pyridazin-6-yl]oxy}methyl)oxetan-3-yl]methanamine]
Human full-length MKNK1 [1]
  IC50: 52 nM
Human full-length MKNK1 [2]
  IC50: 63 nM
